Results published in patent publication US9533937B2, “Use of metal scavengers for removal of ruthenium residues” (Apeiron Synthesis S.A., priority 2013, dated 2017).

Test: Solubility in solvents
Assay type: physicochemical

With [C-]#[N+]CC(=O)[O-].[K+] [CNCH2CO2K] the solubility in solvents was “well soluble only in very polar solvents such as water and alcohols”.
